These results are taken from patent US8729026B2, “Method for inhibiting autophagy of motor neurons” (China Medical University, priority 2012, dated 2014).

Data set [1] is described as follows: Phase II metabolism assay, dog cryopreserved hepatocytes, LC-MS/MS metabolite identification. The format is in vitro ADME. To be noted: butylidenephthalide 50 μM, 37° C., 6 hours. The text has this:
(§1) It has been known that the medicine metabolic pathway within an organism's liver can be primarily divided into phase I and phase II metabolism. Phase I metabolism occurs mainly by the redox reaction or hydrolysis reaction of medicine, and phase II metabolism occurs mainly by […]. This example simulated the phase I and II metabolism of butylidenephthalide that occur within an organism's liver by respectively mixing butylidenephthalide with hepatic microsomes or cryopreserved hepatocytes in vitro, and the products in the reaction solution were analyzed by liquid chromatograph-tandem mass spectrometer (LC-MS/MS) to identify the metabolites and the metabolic profile. The experimental steps were as follows:
(§2) William's E medium containing 5×10^5 thawed human, rat or dog hepatocytes were respectively added into a 12-well culture dish, and the cells were cultured for 6 hours. Then, 0.5 mL of butylidenephthalide (50 μM) was added into the culture dish. After the cells were incubated at 37° C., 95% relative humidity and 5% CO2 for 6 hours, 2 mL of acetonitrile (100%) was added to terminate the reaction. The sample was collected, mixed adequately, and centrifuged at 45000 g, 4° C. for 10 minutes. The supernatant was then collected, dried, and analyzed by LC-MS/MS to identify the metabolites. […]

The test system of data set [2] is spinal motor neurons. The experiment in a line: Histochemical staining (hematoxylin and eosin): count of spinal motor neurons of SOD1-G93A transgenic mice. The conditions noted are these: spinal cord, mice sacrificed in extremis, oral 500 mg/kg-body weight once daily. Format: in vivo, mouse. Here is the method:
SOD1-G93A transgenic mice (60-day-old) were treated with butylidenephthalide by oral administration, with a dosage of 500 mg/kg-body weight once daily. The SOD1-G93A transgenic mice in the experimental group were sacrificed in extremis, and the spinal cord was collected to perform hematoxylin and eosin stain. The number of motor neurons in the spinal cord was observed and counted by using a microscope, and the data was compared with that of the untreated control group.

A short description of data set [3]: Phase I metabolism assay, human hepatic microsomes, LC-MS/MS metabolite identification. The conditions noted are these: butylidenephthalide 2 mM, human hepatic microsomes 0.5 mg/mL, NADPH, 37° C., 60 minutes. Format: in vitro ADME.
Text: as §1
(§3) Butylidenephthalide (2 mM) was mixed respectively with K3PO4 buffer solution (100 mM, pH7.4) containing human, rats or dogs hepatic micrsomes (0.5 mg/mL). The mixture was maintained at 37° C. for 10 minutes, and then pre-warmed cofactors (NADPH (2 mM) and MgCl2 (3 mM)) were added thereto and the mixture was incubated at 37° C. for 60 minutes. Thereafter, 3-fold volume of acetonitrile containing 0.1% formic acid was added to the mixture to terminate the reaction. The mixture was centrifuged at 13000 rpm for 5 minutes, and the supernatant was then collected and analyzed by LC-MS/MS to identify the metabolites. […]

In data set [4] the test system is NSCs (neural stem cells). Briefly: Cellular experiment: H2O2-stimulated autophagy of NSCs, LC3-II by Western blotting. Format: cell-based, mouse. The conditions noted are these: 10 μg/mL butylidenephthalide for 12 hours, then H2O2 (2500 μM/mL) for 12 hours. Here is the method:
Cellular experiment was performed by using NSCs (neural stem cells) which can differentiate into mouse motor neurons to imitate mouse motor neurons.
NSCs were incubated in a culture dish (10 cm in diameter). The cells were washed with PBS when grown to a density of 60% confluence, and treated with different concentrations of butylidenephthalide for 12 hours. The cells were then treated with H2O2 (2500 μM/mL) for 12 hours to stimulate the autophagy of cells. Then, the cells were collected and the proteins were extracted, and the protein expression level of LC3-II in NSC was analyzed by SDS-PAGE and Western blotting.
(In general: In western blotting, separated proteins are transferred to a membrane and probed.)

Data set [5] deals with SOD1-G93A transgenic mice. Briefly: Survival of SOD1-G93A transgenic mice (amyotrophic lateral sclerosis model). The conditions noted are these: 60-day-old SOD1-G93A transgenic mice, oral, 500 mg/kg-body weight once daily; for Survival days: n = 8, 500 mg/kg. Format: in vivo, mouse. An excerpt: It has been known that about 20% of amyotrophic lateral sclerosis patients were associated with mutations in the gene that encodes Cu/Zn superoxide dismutase enzyme (SOD1), and G93A was the major mutation site. […] A SOD1-G93A transgenic mouse will show the symptoms of amyotrophic lateral sclerosis within about 90±5 days postnatal and will die within about 125±5 days postnatal.
This example used the above SOD1-G93A transgenic mice as the object of study to perform in vivo analysis. SOD1-G93A transgenic mice (60-day-old) were treated with butylidenephthalide (purchased from ECHO Chemical) by oral administration, with a dosage of 500 mg/kg-body weight once daily, wherein the unit “mg/kg-body weight” means the dosage required per kg-body weight.

Data set [6] is described as follows: Phase I metabolism assay, rat hepatic microsomes, LC-MS/MS metabolite identification. The conditions noted are these: butylidenephthalide 2 mM, rat hepatic microsomes 0.5 mg/mL, NADPH, 37° C., 60 minutes. Format: in vitro ADME.
Text: as §1, §3

The nature of data set [7]: Phase II metabolism assay, rat cryopreserved hepatocytes, LC-MS/MS metabolite identification. The conditions noted are these: butylidenephthalide 50 μM, 37° C., 6 hours. The format is in vitro ADME.
Text: as §1, §2

The test system of data set [8] is LC3-II. Briefly: Western blotting of autophagy biomarker LC3-II in spinal cord of SOD1-G93A transgenic mice. The format is in vivo, mouse. The conditions noted are these: compared with untreated control; oral 500 mg/kg-body weight once daily, sacrificed in extremis; β-actin internal control. Here is the method:
SOD1-G93A transgenic mice (60-day-old) were treated with butylidenephthalide by oral administration, with a dosage of 500 mg/kg-body weight once daily. It has been indicated by research that SOD1-G93A transgenic mice lost its spinal motor neurons because of the significant increase of autophagy during the last phase of amyotrophic lateral sclerosis (which can be seen in In vivo optical imaging of motor neuron autophagy in a mouse model of amyotrophic lateral sclerosis. Autophagy 7:9, 1-8; September 2011, which is entirely incorporated hereinto by reference). Therefore, in this example, the SOD1-G93A transgenic mice in experimental group were sacrificed in extremis to collect their spinal cord, and the proteins were extracted from the spinal cord to perform Western blotting and to analyze the protein biomarker of autophagy, LC3-II, which was used to determine whether autophagy occurred in the lumbar spinal motor neurons of the mice, wherein β-actin was used as an internal control.

Data set [9] relates to SOD1-G93A transgenic mice. The experiment in a line: BBB Locomotor Rating Scale of hind limbs of SOD1-G93A transgenic mice. The format is in vivo, mouse. To be noted: oral, 500 mg/kg-body weight once daily from 60 days of age; normal mice 21 points. Here is the method:
SOD1-G93A transgenic mice (60-day-old) were treated with butylidenephthalide by oral administration, with a dosage of 500 mg/kg-body weight once daily. After the mice were treated for 30 days, the hind limbs of the mice were examined by BBB scale (Basso, Beattie, and Bresnahan (BBB) Locomotor Rating Scale). The BBB scale of the hind limbs of normal mice was 21 points, while the BBB scale of disease-progressed SOD1-G93A transgenic mice decreased from 21 to 0 points, wherein the lower scale represents a more severe action disorder in the mice. BBB scale is used to record the drug efficiency.

The nature of data set [10]: Phase II metabolism assay, human cryopreserved hepatocytes, LC-MS/MS metabolite identification. The format is in vitro ADME. To be noted: butylidenephthalide 50 μM, 37° C., 6 hours.
Text: as §1, §2

Data set [11] can be described thus: Phase I metabolism assay, dog hepatic microsomes, LC-MS/MS metabolite identification. Format: in vitro ADME. The conditions noted are these: butylidenephthalide 2 mM, dog hepatic microsomes 0.5 mg/mL, NADPH, 37° C., 60 minutes.
Text: as §1, §3

The structures appear in SMILES notation.

Regarding `CCCC=C1OC(=O)c2ccccc21` [butylidenephthalide], the “metabolites produced (phase II metabolism)” value in [1], in data set [7] and in data set [10] was “compounds (11) to (14)” in each case. The “The number of motor neurons” value turned out to be 24 in [2] (control group 3 ± 3.1) and 24 ± 4.2 in [2] (control group 3 ± 3.1, listed as n-BP). Further, the “metabolites produced (phase I metabolism)” value in data set [3], in [6] and in data set [11] was “compounds (2) to (9)” each time. Moreover, the “protein expression level of LC3-II in NSC” value in [4] is “decrease the protein expression level of LC3-II”. Also, the “life lengthened as compared to untreated control group” value in [5] was “about 22±2 days”. Moreover, the Survival days result in data set [5] is reported as “about 149±4.39 days”; in [5] (listed as n-BP), 149 ± 4.39 days. Besides, the “protein expression level of LC3-II and pLC3-II in cervical, thoracic and lumbar spinal cord” value in data set [8] was “significantly decreased”. Besides, the “BBB scale of the hind limbs, after 135 days (decreased rapidly)” value in data set [9] is recorded as 16 to 0 points. In addition, the “BBB scale of the hind limbs, from 125 to 135 days (decreased slowly)” value in [9] is 21 to 16 points.
